# Molecular target: human PRMT3 (Homo sapiens, UniProt O60678)
# Test: PRMT3 Biochemical Assay (3H-SAM Flashplate, peptide substrate)
# Settings: single experiment or average of multiple experiments
# Source text: S-adenosylmethionine (SAM), S-adenosylhomocysteine (SAH), bicine, Tween20, dimethylsulfoxide (DMSO), bovine skin gelatin (BSG), isopropyl-β-D-thiogalactopyranoside (IPTG), and Tris(2-carboxyethyl)phosphine hydrochloride solution (TCEP) were purchased from Sigma-Aldrich at the highest level of purity possible. ^3H-SAM was purchase from American Radiolabeled Chemicals with a specific activity of 80 Ci/mmol. 384-well streptavidin Flashplates were purchased from PerkinElmer.
# Peptide containing the classic RMT substrate motif was synthesized with an N-terminal linker-affinity tag motif and a C-terminal amide cap by 21st Century Biochemicals. The peptide was purified by high-performance liquid chromatography (HPLC) to greater than 95% purity and confirmed by liquid chromatography mass spectrometry (LC-MS). The sequence was Biot-Ahx-[…]-amide (SEQ ID NO.:11).
# Full-length human PRMT3 (NM_005788.3) isoform 1 transcript clone was amplified from an HEK 293 cDNA library and subcloned into pGEX-KG (GE Life Sciences). The resulting construct encodes an N-terminal GST tag and a thrombin cleavage sequence ([…] […] […] […]) (SEQ ID NO.: 12) fused directly to Cys 2 of PRMT3.
# E. coli (BL21(DE3) Gold, Stratagene) made competent by the CaCl2 method were transformed with the PRMT3 construct and ampicillin selection. Protein over-expression was accomplished by growing the PRMT3 expressing E. coli clone and inducing expression with 0.3 mM IPTG at 16° C. The culture was grown for 12 hours, harvested by centrifugation, and stored at −80° C. for purification.
# GST-tagged PRMT3 was eluted with 50 mM Tris, 2 mM glutathione, pH 7.1 and 50 mM Tris, 20 mM glutathione, pH 7.1. Pooled fractions were dialysed in 20 mM Tris, 50 mM NaCl, 5% glycerol, 1 mM EDTA, 1 mM DTT, pH7.5 (Buffer B) and applied to a Q Sepharose Fast Flow column. GST-tagged PRMT3 was eluted by 500 mM NaCl in buffer B. Pooled fractions were dialyzed in 25 mM phosphate buffer, 100 mM NaCl, 5% glycerol, 2 mM DTT, pH 6.8 (Buffer C) and loaded on to a ceramic hydroxyapatite column. GST-tagged PRMT3 eluted with 25-400 mM phosphate in buffer C. Protein was concentrated and buffer was exchanged to 20 mM Tris, 150 mM NaCl, 5% glycerol, 5 mM β-mercaptoethanol, pH7.8 by ultrafiltration. The purity of recovered protein was 70%.
# General Procedure for PRMT3 Enzyme Assays on Peptide Substrates.
# The assays were all performed in a buffer consisting of 20 mM Bicine (pH=7.6), 1 mM TCEP, 0.005% BSG, and 0.002% Tween 20, prepared on the day of use. Compounds in 100% DMSO (1 ul) were spotted into a polypropylene 384-well V-bottom plates (Greiner) using a Platemate Plus outfitted with a 384-channel head (Thermo Scientific). DMSO (1 ul) was added to Columns 11, 12, 23, 24, rows A-H for the maximum signal control and 1 ul of SAH, a known product and inhibitor of PRMT3, was added to columns 11, 12, 23, 24, rows I-P for the minimum signal control. A cocktail (40 ul) containing the PRMT3 enzyme was added by Multidrop Combi (Thermo-Fisher). The compounds were allowed to incubate with PRMT3 for 30 min at room temperature, then a cocktail (10 ul) containing SAM and peptide was added to initiate the reaction (final volume=51 ul). The final concentrations of the components were as follows: PRMT3 was 0.5 nM, ^3H-SAM was 100 nM, non-radiolabeled SAM was 1.8 uM, peptide was 330 nM, SAH in the minimum signal control wells was 1 mM, and the DMSO concentration was 2%. The assays were stopped by the addition of potassium chloride (10 ul) to a final concentration of 100 mM. 50 ul of the reaction in the 384-well polypropylene plate was then transferred to a 384-well Flashplate and the biotinylated peptides were allowed to bind to the streptavidin surface for at least 1 hour before being washed once with 0.1% Tween20 in a Biotek ELx405 plate washer. […]
# Sequence of human PRMT3 (O60678 with tags, fused parts or gaps): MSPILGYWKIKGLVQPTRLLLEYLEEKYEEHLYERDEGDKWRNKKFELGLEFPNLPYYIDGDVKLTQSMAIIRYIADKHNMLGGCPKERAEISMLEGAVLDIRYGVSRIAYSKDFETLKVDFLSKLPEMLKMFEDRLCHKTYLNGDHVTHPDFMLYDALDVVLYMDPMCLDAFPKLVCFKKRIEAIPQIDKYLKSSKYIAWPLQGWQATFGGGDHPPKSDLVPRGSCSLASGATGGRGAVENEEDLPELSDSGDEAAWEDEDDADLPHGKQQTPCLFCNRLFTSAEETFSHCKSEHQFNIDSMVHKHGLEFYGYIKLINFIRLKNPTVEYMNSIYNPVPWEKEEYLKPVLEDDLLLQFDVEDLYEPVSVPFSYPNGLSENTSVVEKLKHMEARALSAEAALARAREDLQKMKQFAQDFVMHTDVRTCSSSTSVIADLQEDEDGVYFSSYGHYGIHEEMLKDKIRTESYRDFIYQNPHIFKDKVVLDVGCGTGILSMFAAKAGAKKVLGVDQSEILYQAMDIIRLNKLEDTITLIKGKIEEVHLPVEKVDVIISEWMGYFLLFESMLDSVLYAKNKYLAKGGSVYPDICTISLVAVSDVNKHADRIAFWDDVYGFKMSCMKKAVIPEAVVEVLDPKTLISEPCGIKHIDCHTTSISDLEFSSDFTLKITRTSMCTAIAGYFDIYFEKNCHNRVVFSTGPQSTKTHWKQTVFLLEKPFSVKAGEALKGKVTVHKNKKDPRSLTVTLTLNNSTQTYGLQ
row,Structure (SMILES),IC50
1,CNCCN(C)Cc1cnn(C2CC2)c1-c1ccc(F)cc1 [Compound 14],23.3 µM
2,CNCCN(C)Cc1cnn(C(C)C)c1-c1ccc(F)cc1 [Compound 16],> 50 µM
3,CNCCN(C)Cc1cn[nH]c1-c1ccc(C#N)cc1 [Compound 17],2.79 µM
4,CNCCN(C)Cc1cn[nH]c1-c1cc(F)cc(F)c1 [Compound 18],7.43 µM
5,CN(CCN)Cc1n[nH]cc1-c1ccc(C2CCOCC2)cc1 [Compound 145],7.18 µM
6,COc1ccc(-c2n[nH]cc2CN(C)CCN)c(Cl)c1 [Compound 146],9 µM
7,CN(CCN)Cc1c[nH]nc1-c1cccc(N(C)C)c1 [Compound 149],9.02 µM
8,Cc1cc(F)ccc1-c1n[nH]cc1CN(C)CCN [Compound 152],9.63 µM
9,COc1ccc(-c2n[nH]cc2CN(C)CCN)cc1 [Compound 153],4.1 µM
10,COc1ccc(-c2n[nH]cc2CN(C)CCN)c(C)c1 [Compound 155],8.56 µM
11,Cc1ccc(-c2n[nH]cc2CN(C)CCN)cc1 [Compound 162],3.52 µM
12,CCOc1ccc(-c2n[nH]cc2CN(C)CCN)cc1 [Compound 166],3.45 µM
13,COCCOc1ccc(-c2n[nH]cc2CN(C)CCN)cc1 [Compound 167],3.74 µM
14,CC(C)Cc1ccc(-c2c[nH]nc2CN(C)CCN)cc1 [Compound 170],7.33 µM
15,CN(CCN)Cc1c[nH]nc1-c1ccc(OCCN2CCOCC2)cc1 [Compound 172],3.41 µM
